Measurements reported in BindingDB's records for patent US12384786 (Minghui Pharmaceutical (Shanghai), 2025).

Assays:
[1] = biological target: Tyrosine-protein kinase BTK [C481S] (Homo sapiens, UniProt Q06187, C481S); experiment: Biochemical Evaluation
[2] = biological target: Tyrosine-protein kinase BTK (Homo sapiens, UniProt Q06187); experiment: Biochemical Evaluation
Tyrosine-protein kinase BTK, sequence (Q06187 whole entry): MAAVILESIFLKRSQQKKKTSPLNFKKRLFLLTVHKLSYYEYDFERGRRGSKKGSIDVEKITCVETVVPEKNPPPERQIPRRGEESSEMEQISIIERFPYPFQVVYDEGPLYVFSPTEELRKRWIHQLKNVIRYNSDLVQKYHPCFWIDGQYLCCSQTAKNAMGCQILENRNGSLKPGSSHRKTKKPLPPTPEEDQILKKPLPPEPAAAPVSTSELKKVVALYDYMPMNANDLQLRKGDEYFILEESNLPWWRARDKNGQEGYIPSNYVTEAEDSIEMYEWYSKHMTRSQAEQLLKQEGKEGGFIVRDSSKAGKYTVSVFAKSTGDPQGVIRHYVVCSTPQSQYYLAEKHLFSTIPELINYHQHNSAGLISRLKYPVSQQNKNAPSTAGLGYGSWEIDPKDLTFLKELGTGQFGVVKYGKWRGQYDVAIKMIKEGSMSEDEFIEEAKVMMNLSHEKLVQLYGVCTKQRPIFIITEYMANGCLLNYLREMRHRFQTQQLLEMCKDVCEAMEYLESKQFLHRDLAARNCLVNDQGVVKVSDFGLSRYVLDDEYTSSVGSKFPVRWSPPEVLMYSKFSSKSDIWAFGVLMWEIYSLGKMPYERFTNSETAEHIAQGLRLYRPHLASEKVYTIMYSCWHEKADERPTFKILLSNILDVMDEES

Tyrosine-protein kinase BTK [C481S], sequence (Q06187 2-659 C481S limits assumed): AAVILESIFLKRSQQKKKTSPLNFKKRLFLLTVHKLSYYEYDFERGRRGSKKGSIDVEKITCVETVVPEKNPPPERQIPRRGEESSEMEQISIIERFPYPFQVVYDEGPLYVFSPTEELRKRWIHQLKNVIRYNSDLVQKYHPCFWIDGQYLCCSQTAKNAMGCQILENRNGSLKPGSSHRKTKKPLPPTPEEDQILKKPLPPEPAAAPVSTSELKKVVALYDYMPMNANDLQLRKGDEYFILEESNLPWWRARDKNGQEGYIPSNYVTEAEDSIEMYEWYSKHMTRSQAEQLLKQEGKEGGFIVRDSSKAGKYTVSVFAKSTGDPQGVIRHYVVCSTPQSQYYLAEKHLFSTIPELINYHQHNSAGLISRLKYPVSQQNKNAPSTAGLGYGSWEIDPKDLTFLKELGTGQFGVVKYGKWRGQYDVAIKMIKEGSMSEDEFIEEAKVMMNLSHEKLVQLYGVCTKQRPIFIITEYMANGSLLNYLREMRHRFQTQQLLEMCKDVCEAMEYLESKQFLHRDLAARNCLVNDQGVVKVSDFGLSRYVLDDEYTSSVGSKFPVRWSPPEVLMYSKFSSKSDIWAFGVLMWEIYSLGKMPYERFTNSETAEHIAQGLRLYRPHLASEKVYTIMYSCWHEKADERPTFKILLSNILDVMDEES

## Nc1ncnc2c1c(-c1ccc(Oc3ccccc3)cc1)nn2[C@H]1CC[C@@H](O)CC1 [US12384786, Example 8A]
[1]
  IC50: 0.7 nM
[2]
  IC50: 2.5 nM
